Source: patent publication US10533010B2, “Substituted indole Mcl-1 inhibitors” (Vanderbilt University, priority 2014, dated 2020)

The compounds below were run against recombinant Mcl-1 (residues 172-327) (Homo sapiens (Human), UniProt Q07820) (assay: Fluorescence polarization anisotropy competition assay (FITC-Bak or FITC-Bim BH3 peptide) with Mcl-1). Conditions: Table 2; Ki bins given in nM; FITC-Bak or FITC-Bim peptide competition; Ki converted from IC50; read-out: Ki for Inhibition of Mcl-1.
Chain of recombinant Mcl-1 (residues 172-327) (Q07820 172-327): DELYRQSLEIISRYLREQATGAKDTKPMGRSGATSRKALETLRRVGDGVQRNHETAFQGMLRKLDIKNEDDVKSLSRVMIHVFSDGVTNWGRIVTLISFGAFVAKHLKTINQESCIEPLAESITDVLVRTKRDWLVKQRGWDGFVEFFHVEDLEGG
Type: binding

Compound | Ki [nM]
Cc1cc(OCCCc2c(C(=O)NCc3ccc(C(=O)NS(=O)(=O)c4ccccc4)o3)[nH]c3ccccc23)cc(C)c1Cl [I-60, 3-(3-(4-chloro-3,5-dimethylphenoxy)propyl)-N-((5-((phenylsulfonyl)carbamoyl)furan-2-yl)methyl)-1H-indole-2-carboxamide] | 101 to 299
Cc1cc(OCCCc2c(C(=O)N[C@H]3CCCC[C@H]3C(=O)O)[nH]c3c(-c4c(C)nn(C)c4C)c(Cl)ccc23)cc(C)c1Cl [I-333, (1R,2S)-2-(6-chloro-3-(3-(4-chloro-3,5-dimethylphenoxy)propyl)-7-(1,3,5-trimethyl-1H-pyrazol-4-yl)-1H-indole-2-carboxamido)cyclohexane-1-carboxylic acid] | < 50
Cc1cc(OCCCc2c(C(=O)N3CCC[C@H]3C(=O)O)[nH]c3c(-c4c(C)nn(C)c4C)c(Cl)ccc23)cc(C)c1Cl [I-337, (6-chloro-3-(3-(4-chloro-3,5-dimethylphenoxy)propyl)-7-(1,3,5-trimethyl-1H-pyrazol-4-yl)-1H-indole-2-carbonyl)-L-proline] | < 50
Cc1cc(OCCCc2c3n(c4c(-c5c(C)nn(C)c5C)c(Cl)ccc24)CCCN(C2SC(=O)NC2C(=O)O)C3=O)cc(C)c1Cl (stereo not drawn) [I-346, 5-(8-chloro-11-(3-(4-chloro-3,5-dimethylphenoxy)propyl)-1-oxo-7-(1,3,5-trimethyl-1H-pyrazol-4-yl)-4,5-dihydro-1H-[1,4]diazepino[1,2-a]indol-2(3H)-yl)-2-oxothiazolidine-4-carboxylic acid] | < 50
Cc1cc(OCCCc2c3n(c4c(-c5c(C)nn(C)c5C)c(Cl)ccc24)C[C@@H](C)N(c2ccc(C(=O)O)cc2)C3=O)cc(C)c1Cl [I-156, (R)-4-(7-chloro-10-(3-(4-chloro-3,5-dimethylphenoxy)propyl)-3-methyl-1-oxo-6-(1,3,5-trimethyl-1H-pyrazol-4-yl)-3,4-dihydropyrazino[1,2-a]indol-2(1H)-yl)benzoic acid] | < 50
Cc1cc(OCCCc2c3n(c4c(-c5c(C)nn(C)c5C)c(Cl)ccc24)C[C@H](C)N(Cc2ccc(C(=O)O)o2)C3=O)cc(C)c1Cl [I-138, (S)-5-((7-chloro-10-(3-(4-chloro-3,5-dimethylphenoxy)propyl)-3-methyl-1-oxo-6-(1,3,5-trimethyl-1H-pyrazol-4-yl)-3,4-dihydropyrazino[1,2-a]indol-2(1H)-yl)methyl)furan-2-carboxylic acid] | < 50
Cc1cc(OCCCc2c3n(c4c(-c5c(C)nn(C)c5C)c(Cl)ccc24)CCCN(Cc2cc(C(=O)O)cc(Cl)n2)C3=O)cc(C)c1Cl [I-349, 2-chloro-6-((8-chloro-1-(3-(4-chloro-3,5-dimethylphenoxy)propyl)-1-oxo-7-(1,3,5-trimethyl-1H-pyrazol-4-yl)-4,5-dihydro-1H-[1,4]diazepino[1,2-a]indol-2(3H)-yl)methyl)isonicotinic acid] | < 50
Cc1cc(OCCCc2c3n(c4c(-c5c(C)nn(C)c5C)c(Cl)ccc24)[C@@H](C)CN(c2ccc(C(=O)O)cc2)C3=O)cc(C)c1Cl [I-166, (S)-4-(7-chloro-10-(3-(4-chloro-3,5-dimethylphenoxy)propyl)-4-methyl-1-oxo-6-(1,3,5-trimethyl-1H-pyrazol-4-yl)-3,4-dihydropyrazino[1,2-a]indol-2(1H)-yl)benzoic acid] | < 50
Cc1cc(OCCCc2c(C(=O)Nc3ccc(C(=O)O)cc3)[nH]c3c(-c4cccnc4C)cccc23)cc(C)c1Cl [I-37, 4-(3-(3-(4-chloro-3,5-dimethylphenoxy)propyl)-7-(2-methylpyridin-3-yl)-1H-indole-2-carboxamido)benzoic acid] | < 50
Cc1cc(OCCCc2c(C(=O)N(C)Cc3cc(C(=O)O)c(C)o3)n(C)c3c(-c4c(C)nn(C)c4C)cccc23)cc(C)c1Cl [I-274, 5-((3-(3-(4-chloro-3,5-dimethylphenoxy)propyl)-N,1-dimethyl-7-(1,3,5-trimethyl-1H-pyrazol-4-yl)-1H-indole-2-carboxamido)methyl)-2-methylfuran-3-carboxylic acid] | 101 to 299
Cc1cc(OCCCc2c3n(c4c(-c5c(C)nn(C)c5C)c(Cl)ccc24)[C@H](C)CN(Cc2cccc(C(=O)O)c2)C3=O)cc(C)c1Cl [I-155, (R)-3-((7-chloro-10-(3-(4-chloro-3,5-dimethylphenoxy)propyl)-4-methyl-1-oxo-6-(1,3,5-trimethyl-1H-pyrazol-4-yl)-3,4-dihydropyrazino[1,2-a]indol-2(1H)-yl)methyl)benzoic acid] | < 50
Cc1cc(OCCCc2c(C(=O)NCCS(=O)(=O)NC(=O)CC34CC5CC(CC(C5)C3)C4)[nH]c3ccccc23)cc(C)c1Cl [I-54, N-(2-(N-(2-((3r,5r,7r)-adamantan-1-yl)acetyl)sulfamoyl)ethyl)-3-(3-(4-chloro-3,5-dimethylphenoxy)propyl)-1H-indole-2-carboxamide] | 501 to 999
Cc1cc(OCCCc2c(C(=O)N3CCC(CC(=O)O)CC3)[nH]c3c(-c4c(C)nn(C)c4C)cccc23)cc(C)c1Cl [I-204, 2-(1-(3-(3-(4-chloro-3,5-dimethylphenoxy)propyl)-7-(1,3,5-trimethyl-1H-pyrazol-4-yl)-1H-indole-2-carbonyl)piperidin-4-yl)acetic acid] | 51 to 100
Cc1cc(OCCCc2c(C(=O)NC3CCN(C(=O)C(=O)O)CC3)[nH]c3c(-c4c(C)nn(C)c4C)c(Cl)ccc23)cc(C)c1Cl [I-321, 2-(4-(6-chloro-3-(3-(4-chloro-3,5-dimethylphenoxy)propyl)-7-(1,3,5-trimethyl-1H-pyrazol-4-yl)-1H-indole-2-carboxamido)piperidin-1-yl)-2-oxoacetic acid] | < 50

The next lines start with the values.

Ki [nM] | Compound
< 50 | Cc1cc(OCCCc2c3n(c4c(-c5c(C)nn(C)c5C)c(Cl)ccc24)CCCN(c2cc(C(=O)O)cc(N(C)C)c2)C3=O)cc(C)c1Cl [I-216, 3-(8-chloro-11-(3-(4-chloro-3,5-dimethylphenoxy)propyl)-1-oxo-7-(1,3,5-trimethyl-1H-pyrazol-4-yl)-4,5-dihydro-1H-[1,4]diazepino[1,2-a]indol-2(3H)-yl)-5-(dimethylamino)benzoic acid]
< 50 | Cc1cc(OCCCc2c3n(c4c(-c5c(C)nn(C)c5C)c(Cl)ccc24)CCCN(c2cc(CN4CCCC4)cc(C(=O)O)c2)C3=O)cc(C)c1Cl [I-225, 3-(8-chloro-11-(3-(4-chloro-3,5-dimethylphenoxy)propyl)-1-oxo-7-(1,3,5-trimethyl-1H-pyrazol-4-yl)-4,5-dihydro-1H-[1,4]diazepino[1,2-a]indol-2(3H)-yl)-5-(pyrrolidin-1-ylmethyl)benzoic acid]
< 50 | Cc1cc(OCCCc2c3n(c4c(-c5c(C)nn(C)c5C)c(Cl)ccc24)CCCN(c2cc(C(=O)O)c4c(Cl)cn(C)c4c2)C3=O)cc(C)c1Cl [I-257, 3-chloro-6-(8-chloro-11-(3-(4-chloro-3,5-dimethylphenoxy)propyl)-1-oxo-7-(1,3,5-trimethyl-1H-pyrazol-4-yl)-4,5-dihydro-1H-[1,4]diazepino[1,2-a]indol-2(3H)-yl)-1-methyl-1H-indole-4-carboxylic acid]
< 50 | Cc1cc(OCCCc2c3n(c4c(-c5c(C)nn(C)c5C)c(Cl)ccc24)CCCN(c2nc(C(=O)O)cs2)C3=O)cc(C)c1Cl [I-359, 2-(8-chloro-11-(3-(4-chloro-3,5-dimethylphenoxy)propyl)-1-oxo-7-(1,3,5-trimethyl-1H-pyrazol-4-yl)-4,5-dihydro-1H-[1,4]diazepino[1,2-a]indol-2(3H)-yl)thiazole-4-carboxylic acid]
< 50 | Cc1cc(OCCCc2c3n(c4c(-c5c(C)nn(C)c5C)c(Cl)ccc24)CCCN(c2cc(F)cc(C(=O)O)c2)C3=O)cc(C)c1Cl [I-223, 3-(8-chloro-11-(3-(4-chloro-3,5-dimethylphenoxy)propyl)-1-oxo-7-(1,3,5-trimethyl-1H-pyrazol-4-yl)-4,5-dihydro-1H-[1,4]diazepino[1,2-a]indol-2(3H)-yl)-5-fluorobenzoic acid]
< 50 | Cc1cc(OCCCc2c3n(c4c(-c5c(C)nn(C)c5C)c(Cl)ccc24)CCCN(c2cccc(C(=O)O)c2C)C3=O)cc(C)c1Cl [I-96, 3-(8-chloro-11-(3-(4-chloro-3,5-dimethylphenoxy)propyl)-1-oxo-7-(1,3,5-trimethyl-1H-pyrazol-4-yl)-4,5-dihydro-1H-[1,4]diazepino[1,2-a]indol-2(3H)-yl)-2-methylbenzoic acid]
< 50 | Cc1cc(OCCCc2c3n(c4c(-c5c(C)nn(C)c5C)c(Cl)ccc24)CCN(Cc2ccc(C(=O)O)cc2)C3=O)cc(C)c1Cl [I-140, 4-((7-chloro-10-(3-(4-chloro-3,5-dimethylphenoxy)propyl)-1-oxo-6-(1,3,5-trimethyl-1H-pyrazol-4-yl)-3,4-dihydropyrazino[1,2-a]indol-2(1H)-yl)methyl)benzoic acid]
< 50 | Cc1cc(OCCCc2c3n(c4c(-c5c(C)nn(C)c5C)c(Cl)ccc24)CCN(c2ccc(C(=O)O)cc2)C3=O)cc(C)c1Cl [I-176, 4-(7-chloro-10-(3-(4-chloro-3,5-dimethylphenoxy)propyl)-1-oxo-6-(1,3,5-trimethyl-1H-pyrazol-4-yl)-3,4-dihydropyrazino[1,2-a]indol-2(1H)-yl)benzoic acid]
< 50 | Cc1cc(OCCCc2c3n(c4c(-c5c(C)nn(C)c5C)c(Cl)ccc24)CCCN(c2cccc(C(=O)NS(=O)(=O)C4CC4)c2)C3=O)cc(C)c1Cl [I-369, 3-(8-chloro-11-(3-(4-chloro-3,5-dimethylphenoxy)propyl)-1-oxo-7-(1,3,5-trimethyl-1H-pyrazol-4-yl)-4,5-dihydro-H-[1,4]diazepino[1,2-a]indol-2(3H)-yl)-N-(cyclopropylsulfonyl)benzamide]

Same assay, conditions: Table 2; Ki bins given in μM; FITC-Bak or FITC-Bim peptide competition; Ki converted from IC50; read-out: Ki for Inhibition of Mcl-1

Compound | Ki [nM]
CCOC(=O)c1ccc(CNC(=O)c2[nH]c3c(-c4c(C)n[nH]c4C)cccc3c2CCCOc2cc(C)c(Cl)c(C)c2)o1 [I-61, ethyl 5-((3-(3-(4-chloro-3,5-dimethylphenoxy)propyl)-7-(3,5-dimethyl-1H-pyrazol-4-yl)-1H-indole-2-carboxamido)methyl)furan-2-carboxylate] | 10000 to 50000
